# According to patent US20110281933A1, “METHODS AND COMPOSITIONS FOR THE MANAGEMENT OF CARDIOVASCULAR DISEASE WITH OLIGONUCLEOTIDES” (Saint Louis University, priority 2010, published 2011):
# Legend:
# miR-33 [1] = assay: Bile secretion in vivo after anti-miR-33 (Example 6); design: species or system mice; conditions: 5 mpk i.v.
# Source text: (A) Pooled bile recovered from the gallbladder of mice (n=5) injected with scrambled or anti-miR-33 oligonucleotides (5 mpk, i.v.) for 2 consecutive days. Mice were then kept for 7 days and fasted overnight before sample collection. (B) Levels of phosphatidylcholine (PC), cholesterol (chol) and bile acids present in pooled bile. (C) Relative expression of hepatic canalicular transporters in mice (n=5) following silencing of miR-33. Data are shown as mean±SD. *P<0.05 (unpaired T-test).
# (§1) RNA and protein analysis. RNA was isolated from cells with Trizol reagent, using a slight modification of the manufacturer's protocol to preserve miRNAs. Briefly, following homogenization in 2 mL of Trizol, […] of chloroform and […] if 2 mol/L sodium acetate pH 4.2 were added before the separation of the organic and aqueous phases. The latter was combined with […] of acid phenol:chloroform:[…], and centrifuged again. RNAs in the aqueous phase was then precipitated with 3 mL of ethanol overnight at 4° C. After centrifugation, the RNA pellet was resuspended in water and stored at −80° C. until use. Alternatively, RNAs were isolated using the mirVana miRNA Isolation Kit (Ambion). cDNAs were generated from 5 μg of DNase1-treated RNA using Superscript III and Random hexamers (Invitrogen). Real-time PCR was done with Sybr green reagent (Roche), using a LightCycler 480 real-time PCR detection system (Roche). Values were normalized to GAPDH and calculated using the comparative CT method. Protein levels were determined by Western blot, using 50 ug total liver protein extract, and a 1:1,000 dilution of anti-ABCA1 antibody (Novus Biologicals), following standard protocols.
# (§2) Murine Studies. Male C57Bl/6J mice were obtained from Jackson Laboratories, and maintained in a 12 hour/12 hour light/dark cycle with unlimited access to chow and water. In examples 1-5, animals (n=6-8 per group) were infused with adenoviral vectors (2×10^9 pfu) via tail vein injection. Blood was collected 5 days post-infusion, and total cholesterol and HDL-cholesterol were assayed enzymatically with the Cholesterol E and HDL-cholesterol E kits from Waco Chemicals. In example 6-10 animals (8-10 week old, n=6 per group, unless noted otherwise) were infused via tail vein injection with adenoviral vectors (2×10^9 pfu) or antisense oligonucleotides (5 mpk, 2 consecutive days). Where indicated, mice were fed a 21% fat, 1% cholesterol, 0.5% cholate diet (Purina 5A8E). Tissues and bile were collected following overnight fasting. RCT experiments were performed as described 28. Briefly, mice were injected i.v. with oligonucleotides (5 mpk) twice for 2 weeks, and then injected i.p. with 1-1.5×10^6 [^3H]-cholesterol-loaded bone marrow-derived macrophages. Blood samples were collected at 6, 24 and 48 h after the injection of the cells. Liver, bile and the feces produced during the last 48 h were collected and flash-frozen until used. The amount of radiolabeled sterols was determined by scintillation. All studies involving mice were approved by the IACUC at Saint Louis University.
# Anti-miR-33 increases bile secretion in vivo. In an effort to understand the in vivo physiological importance of miR-33, the inventor injected mice with (5 mpk) of locked nucleic acid (LNA) scrambled sequence or LNA anti-miR-33 oligonucleotides 5-[…]-3′ (SEQ ID NO: 8) in saline (0.9% NaCl) via tail vein injection, at 5 mg/Kg (mpk) body weight. Mice were then kept with unlimited access to water and regular chow for a week. The amount of bile collected from the gallbladders of fasted mice receiving anti-miR-33 oligonucleotides was almost double of that collected from control mice (FIG. 6A). […] Next, the inventor tested the expression of several hepatocyte canalicular transporters that are known to mediate bile secretion.
# miR-33 [2] = assay: Silencing miR-33 rescues liver damage induced by simvastatin and cholate diet (Example 9); format: in vivo, mice
# Source text: Samples were collected after 7 days on the diet, or when mice appeared moribund. […] (B) Percentage of body weight, compared to the initial mass of each animal. Data are shown as mean±SD. (C) Macroscopic appearance of livers. (D) Liver to total body mass ratios. […] (E) Appearance of plasma. […] (G) Relative expression of hepatic canalicular transporters (upper panel) and other genes involved in bile acid and sterol homeostasis (bottom panel).
# as §1
# as §2, with “In examples 1-5, animals (n=6-8 per group) were infused with adenoviral vectors (2×10^9 pfu) via tail vein injection.” left out, “In example 6-10 animals (8-10 week old, n=6 per group, unless noted otherwise) were infused via tail vein injection with adenoviral vectors (2×10^9 pfu) or antisense oligonucleotides (5 mpk, 2 consecutive days). Where indicated, mice were fed a 21% fat, 1% cholesterol, 0.5% cholate diet (Purina 5A8E).” left out
# Similarly bile and plasma were extracted in the presence of internal standards for each lipid class. Id.
# The inventor next tested whether silencing miR-33 could rescue mammals with statin induced ERIC or cholestasis. […] Finally, the inventor studied the mRNA levels of selected hepatic genes (FIG. 10G).
# miR-33 [3] = assay: Reverse cholesterol transport with [3H]-cholesterol-loaded macrophages (Example 10); format: in vivo, C57BL/6 mice; conditions: 5 mpk
# Description: (A) Percentage of total injected dpm in the plasma of mice treated with scrambled or anti-miR-33 oligonucleotides (5 mpk, twice a week for 2 weeks), at 6, 24 at 48 h post-injection of [3H]-cholesterol-acLDL-loaded macrophages. *P<0.05 (unpaired T-test): **P<0.01 (unpaired T-test). (B) Percentage of total injected dpm in the liver of the same mice. (C) Percentage of total injected dpm in the be recovered from the gallbladder of the same mice. **P<0.01 (unpaired T-test). (D) Percentage of total injected dpm in the feces of the same mice. **P<0.01 (unpaired T-test).
# as §2
# ANTI-miR-33 Treatment Results In Increased Reverse Cholesterol Transport. Biliary secretion is an essential component of the reverse cholesterol transport (RCT) pathway (Nijstad at al., (2011) Gastroenterology 140, 1043-1051) by which extrahepatic cholesterol is shuttled to the liver, secreted into bile and excreted through feces (Khera and Rader, (2010) Curr Atheroscler Rep 12, 73-81; Rader et al., (2009) J Lipid Res 50 Suppl, S189-194; Wang et al., (2007) J Clin Invest 117, 2216-2224; Wang and Rader, (2007) J Biol Chem 280, 8742-8747). An additional, liver-independent ROT pathway has been proposed that removes circulating cholesterol through the intestine directly into feces (van der Veen et al., (2009) J Biol Chem 284, 19211-19219). The inventor reasoned that the changes in be secretion observed following manipulation of miR-33 levels will result in altered RCT. […] Analysis of the bile recovered from the gallbladder confirmed that bile secretion is increased after suppression of miR-33 expression. […] Finally, the recovery of labeled sterols in the feces increased ˜2-fold in these same mice, compared to control animals (FIG. 8D).
# [4] = tested on: C57BL/6 mice on 1% cholesterol, 0.5% cholate diet; assay: Simvastatin and cholate diet induced liver damage (Example 8); format: in vivo; conditions: 50 mpk simvastatin vs saline
# miR-33 [5] = assay: miR-33 silencing in vivo: hepatic ABCA1 and plasma HDL-cholesterol (Example 4); design: species or system C57BL/6 mice; conditions: 5 mg/Kg/day for 3 consecutive days, vs scrambled
# Description: as §1
# Murine Studies. Male C57Bl/6J mice were obtained from Jackson Laboratories, and maintained in a 12 hour/12 hour light/dark cycle with unlimited access to chow and water. In examples 1-5, animals (n=6-8 per group) were infused with adenoviral vectors (2×10^9 pfu) via tail vein injection. […] In example 6-10 animals (8-10 week old, n=6 per group, unless noted otherwise) were infused via tail vein injection with adenoviral vectors (2×10^9 pfu) or antisense oligonucleotides (5 mpk, 2 consecutive days). […] The amount of radiolabeled sterols was determined by scintillation. […]
# miR-33 modulation of physiological sterol homeostasis in vivo. To put these latter results in a physiological context, scrambled or anti-miR-33 oligonucleotides were injected into the tail veins of C57BL/6 mice (5 mg/Kg/day for 3 consecutive days), and plasma lipoprotein and cholesterol levels determined 12 days after the infusion.
# [6] = 150 mpk simvastatin and cholate diet
# [7] = mice that survived at the end of the experiment, vs scrambled
molecule,measurement,setting,value
"5′-TGCAACTACAATGCA-3′ (LNA modifications, further chemistry not given here; listed as Homo sapiens) [LNA anti-miR-33 oligonucleotide, locked nucleic acid antisense oligonucleotide targeted to both miR-33 and miR-33 preRNA]",amount of bile collected from the gallbladders,"miR-33 [1]; fasted mice after a week, vs control mice",almost double
same,Abcb11 mRNA levels in liver,miR-33 [1]; vs scrambled,significantly increased
same,Atp8b1 mRNA levels in liver,miR-33 [1]; vs scrambled,significantly increased
same,concentration of phosphatidylcholine in bile,miR-33 [1]; vs scrambled,slightly elevated
same,"mRNA levels of other canalicular transporters (Abcg5, Abcg8, Abcb4) in liver",miR-33 [1]; vs scrambled,remained unchanged
same,overall content of bile acids in pooled bile,miR-33 [1]; vs scrambled,did not change
same,overall content of cholesterol in pooled bile,miR-33 [1]; vs scrambled,did not change
same,survival,"miR-33 [2]; 5 mpk i.v. two consecutive doses, then 150 mpk simvastatin and cholate diet, n=10","with one exception, all mice receiving anti-miR-33 oligonucleotides survived for at least a week"
same,appearance of livers,miR-33 [2]; [6],appeared normal
same,appearance of plasma,miR-33 [2]; [6],appeared clear
same,"hepatic free fatty acids, diglycerides, triglycerides and bile acids","miR-33 [2]; 150 mpk simvastatin and cholate diet, vs control animals",marked decrease
same,loss of body weight,"miR-33 [2]; 150 mpk simvastatin and cholate diet, vs scrambled",minimal loss
same,hepatic expression of Atp8b1,miR-33 [2]; [7],increased expression
same,increased hepatic expression of Abcb11 or any other canalicular transporter,miR-33 [2]; [7],not
same,liver/body mass ratio,miR-33 [2]; vs control mice that succumbed to the diet and statin treatment,significantly lower
same,bile secretion (bile recovered from the gallbladder),miR-33 [3],is increased
same,"changes in body, liver or feces mass",miR-33 [3],did not observe changes
same,amount of labeled cholesterol in circulation,"miR-33 [3]; 6, 24, 48 h, vs control animals",increased
same,amount of labeled sterols found in the liver,miR-33 [3]; 48 h,did not statistically differ
same,"contents of labeled biliary sterols (dpm/μL of bile), increase",miR-33 [3]; corrected for volume,2 fold
same,"recovery of labeled sterols in the feces, increase","miR-33 [3]; feces of last 48 h, vs control animals",~2 fold
CCC(C)(C)C(=O)O[C@H]1C[C@@H](C)C=C2C=C[C@H](C)[C@H](CC[C@@H]3C[C@@H](O)CC(=O)O3)[C@H]21 [simvastatin],reduction of hepatic Abcb11 levels,[4],~40%
"anti-miR-33 oligonucleotides: anti-miR-33 oligonucleotides injected in Example 4; sequence and chemistry not stated there (antisense TGCAACTACAATGCA; LNA-modified, pattern not given here; listed as Homo sapiens)",increase in HDL-cholesterol,miR-33 [5]; 12 days after infusion,10-15%
same,increase in hepatic ABCA1 mRNA levels,miR-33 [5]; tail vein,2 fold
same,increase in hepatic ABCA1 protein levels,miR-33 [5]; tail vein,2 fold
